# Assay results published in PubChem BioAssay AID1963442 (Molecular Pharmacology Branch, DTP, NCI, 2024).
# System: MPNST complex spheroid with HUVEC/MSC, growth, % test/control
# Assay: Anticancer human tumor MPNST cell line growth inhibition [Asc];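 note: compounds left on spheroids for seven days before reading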
# Settings: for IC50: curve of first compound; for viability, T/C: stronger effect = lower value
# Method in brief: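 Tumor cells were grown as multicellular spheroids with stromal HUVEC and mesenchymal stem cells and treated singly or in combination. Concentrations fell in half-log steps from the clinical Cmax, or from 10 microM where none was known.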
# [1] = second compound 0.1 µM, first compound 0.0316 µM
# [2] = second compound 0.1 µM, first compound 0.1 µM
# [3] = second compound 0.1 µM, first compound 0.316 µM
# [4] = second compound 0.1 µM, first compound 1 µM
# [5] = second compound 0.316 µM, first compound 0.0316 µM
# [6] = second compound 0.316 µM, first compound 0.1 µM
# [7] = second compound 0.316 µM, first compound 0.316 µM
# [8] = second compound 0.316 µM, first compound 1 µM
# [9] = second compound 1 µM, first compound 0.0316 µM
# [10] = second compound 1 µM, first compound 0.1 µM
# [11] = second compound 1 µM, first compound 0.316 µM
# [12] = second compound 1 µM, first compound 1 µM
# [13] = second compound 3.16 µM, first compound 0.0316 µM
# [14] = second compound 3.16 µM, first compound 0.1 µM
# [15] = second compound 3.16 µM, first compound 0.316 µM
# [16] = second compound 3.16 µM, first compound 1 µM
# [17] = second compound 10 µM, first compound 0.0316 µM
# [18] = second compound 10 µM, first compound 0.1 µM
# [19] = second compound 10 µM, first compound 0.316 µM
# [20] = second compound 10 µM, first compound 1 µM
structure (smiles),measurement,setting,value
C=C(F)C(=O)N1CCN(c2nc(OCC3CCCN3C)nc3c2CCN(c2cccc4cccc(Cl)c24)C3)CC1CC#N (stereo not given) + Cc1c(S(C)(=O)=O)c(-c2cc(F)cc(N3CCN(c4ccc(NS(=O)(=O)c5ccc(NC(CCN6CCC(C(=O)OCCCP(=O)(O)O)CC6)CSc6ccccc6)c(S(=O)(=O)C(F)(F)F)c5)cc4)CC3)c2)c(-c2ccc(Cl)cc2)n1C(C)C,IC50,second compound 0.1 µM,> 10 µM
same,IC50,second compound 0.316 µM,3.72 µM
same,IC50,second compound 1 µM,2.88 µM
same,IC50,second compound 3.16 µM,1.98 µM
same,IC50,second compound 10 µM,3.3 µM
same,"viability, T/C",[1],65.5%
same,"viability, T/C",[2],66.2%
same,"viability, T/C",[3],69.8%
same,"viability, T/C",[4],81.1%
same,"viability, T/C","second compound 0.1 µM, first compound 3.16 µM",74.7%
same,"viability, T/C","second compound 0.1 µM, first compound 10 µM",51.3%
same,"viability, T/C",[5],67.2%
same,"viability, T/C",[6],61.1%
same,"viability, T/C",[7],69.6%
same,"viability, T/C",[8],58%
same,"viability, T/C","second compound 0.316 µM, first compound 3.16 µM",52.4%
same,"viability, T/C","second compound 0.316 µM, first compound 10 µM",36.2%
same,"viability, T/C",[9],73.5%
same,"viability, T/C",[10],75.4%
same,"viability, T/C",[11],67.6%
same,"viability, T/C",[12],53.9%
same,"viability, T/C","second compound 1 µM, first compound 3.16 µM",53.5%
same,"viability, T/C","second compound 1 µM, first compound 10 µM",41.1%
same,"viability, T/C",[13],78.2%
same,"viability, T/C",[14],70%
same,"viability, T/C",[15],64.5%
same,"viability, T/C",[16],57.3%
same,"viability, T/C","second compound 3.16 µM, first compound 3.16 µM",46.2%
same,"viability, T/C","second compound 3.16 µM, first compound 10 µM",32.7%
same,"viability, T/C",[17],53.5%
same,"viability, T/C",[18],65.8%
same,"viability, T/C",[19],71.2%
same,"viability, T/C",[20],64.4%
same,"viability, T/C","second compound 10 µM, first compound 3.16 µM",50.8%
same,"viability, T/C","second compound 10 µM, first compound 10 µM",30.3%
CCN1C(C(=O)NC23CCC(C(=O)O)(CC2)CC3)C(c2cccc(Cl)c2F)C2(C(=O)Nc3cc(Cl)ccc32)C12CCCCC2 (stereo not given) + Cc1c(S(C)(=O)=O)c(-c2cc(F)cc(N3CCN(c4ccc(NS(=O)(=O)c5ccc(NC(CCN6CCC(C(=O)OCCCP(=O)(O)O)CC6)CSc6ccccc6)c(S(=O)(=O)C(F)(F)F)c5)cc4)CC3)c2)c(-c2ccc(Cl)cc2)n1C(C)C,IC50,second compound 0.1 µM,> 3 µM
same,IC50,second compound 0.316 µM,> 3 µM
same,IC50,second compound 1 µM,> 3 µM
same,IC50,second compound 3.16 µM,> 3 µM
same,IC50,second compound 10 µM,> 3 µM
same,"viability, T/C","second compound 0.1 µM, first compound 0.00949 µM",66.3%
same,"viability, T/C","second compound 0.1 µM, first compound 0.03 µM",92.1%
same,"viability, T/C","second compound 0.1 µM, first compound 0.0949 µM",78.6%
same,"viability, T/C","second compound 0.1 µM, first compound 0.3 µM",69.6%
same,"viability, T/C","second compound 0.1 µM, first compound 0.949 µM",82.5%
same,"viability, T/C","second compound 0.1 µM, first compound 3 µM",58.6%
same,"viability, T/C","second compound 0.316 µM, first compound 0.00949 µM",84%
same,"viability, T/C","second compound 0.316 µM, first compound 0.03 µM",76.4%
same,"viability, T/C","second compound 0.316 µM, first compound 0.0949 µM",75.2%
same,"viability, T/C","second compound 0.316 µM, first compound 0.3 µM",66.9%
same,"viability, T/C","second compound 0.316 µM, first compound 0.949 µM",58.5%
same,"viability, T/C","second compound 0.316 µM, first compound 3 µM",60.3%
same,"viability, T/C","second compound 1 µM, first compound 0.00949 µM",83.1%
same,"viability, T/C","second compound 1 µM, first compound 0.03 µM",77.6%
same,"viability, T/C","second compound 1 µM, first compound 0.0949 µM",78.9%
same,"viability, T/C","second compound 1 µM, first compound 0.3 µM",66.6%
same,"viability, T/C","second compound 1 µM, first compound 0.949 µM",58.8%
same,"viability, T/C","second compound 1 µM, first compound 3 µM",63%
same,"viability, T/C","second compound 3.16 µM, first compound 0.00949 µM",77.9%
same,"viability, T/C","second compound 3.16 µM, first compound 0.03 µM",69.7%
same,"viability, T/C","second compound 3.16 µM, first compound 0.0949 µM",92.9%
same,"viability, T/C","second compound 3.16 µM, first compound 0.3 µM",59.1%
same,"viability, T/C","second compound 3.16 µM, first compound 0.949 µM",61.6%
same,"viability, T/C","second compound 3.16 µM, first compound 3 µM",56.7%
same,"viability, T/C","second compound 10 µM, first compound 0.00949 µM",85.9%
same,"viability, T/C","second compound 10 µM, first compound 0.03 µM",82.3%
same,"viability, T/C","second compound 10 µM, first compound 0.0949 µM",75.4%
same,"viability, T/C","second compound 10 µM, first compound 0.3 µM",68.8%
same,"viability, T/C","second compound 10 µM, first compound 0.949 µM",56.5%
same,"viability, T/C","second compound 10 µM, first compound 3 µM",58.3%
CNC(C)C(=O)NC1CN(S(=O)(=O)c2cccc(S(=O)(=O)N3CCC4CCC(C(=O)NC(c5ccccc5)c5ccccc5)N4C(=O)C(NC(=O)C(C)NC)C3)c2)CCC2CCC(C(=O)NC(c3ccccc3)c3ccccc3)N2C1=O (stereo not given) + Cc1c(S(C)(=O)=O)c(-c2cc(F)cc(N3CCN(c4ccc(NS(=O)(=O)c5ccc(NC(CCN6CCC(C(=O)OCCCP(=O)(O)O)CC6)CSc6ccccc6)c(S(=O)(=O)C(F)(F)F)c5)cc4)CC3)c2)c(-c2ccc(Cl)cc2)n1C(C)C,IC50,second compound 0.1 µM,> 1 µM
same,IC50,second compound 0.316 µM,> 1 µM
same,IC50,second compound 1 µM,> 1 µM
same,IC50,second compound 3.16 µM,> 1 µM
same,IC50,second compound 10 µM,> 1 µM
same,"viability, T/C","second compound 0.1 µM, first compound 0.00316 µM",121%
same,"viability, T/C","second compound 0.1 µM, first compound 0.01 µM",143%
same,"viability, T/C",[1],162%
same,"viability, T/C",[2],165%
same,"viability, T/C",[3],126%
same,"viability, T/C",[4],108%
same,"viability, T/C","second compound 0.316 µM, first compound 0.00316 µM",139%
same,"viability, T/C","second compound 0.316 µM, first compound 0.01 µM",150%
same,"viability, T/C",[5],127%
same,"viability, T/C",[6],149%
same,"viability, T/C",[7],121%
same,"viability, T/C",[8],135%
same,"viability, T/C","second compound 1 µM, first compound 0.00316 µM",145%
same,"viability, T/C","second compound 1 µM, first compound 0.01 µM",150%
same,"viability, T/C",[9],152%
same,"viability, T/C",[10],147%
same,"viability, T/C",[11],194%
same,"viability, T/C",[12],160%
same,"viability, T/C","second compound 3.16 µM, first compound 0.00316 µM",132%
same,"viability, T/C","second compound 3.16 µM, first compound 0.01 µM",185%
same,"viability, T/C",[13],171%
same,"viability, T/C",[14],141%
same,"viability, T/C",[15],151%
same,"viability, T/C",[16],159%
same,"viability, T/C","second compound 10 µM, first compound 0.00316 µM",143%
same,"viability, T/C","second compound 10 µM, first compound 0.01 µM",200%
same,"viability, T/C",[17],216%
same,"viability, T/C",[18],159%
same,"viability, T/C",[19],185%
same,"viability, T/C",[20],179%
